Source: patent US20100099561A1, “HETEROBICYCLIC ALKYLTHIO-BRIDGED ISOXAZOLINES” (E.I. DU PONT DE NEMOURS AND COMPANY, priority 2008, published 2010)

Experiments:
Format in all cases: in vivo
[1] = test system: velvetleaf (Abutilon theophrasti); test: Test A preemergence, velvetleaf; conditions: 0 to 100 scale (0 no effect, 100 complete control)
How it was run: (§1)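 Visual injury scored 0 (no effect) to 100 (complete control) against untreated plants roughly ten days after greenhouse treatment. Postemergence sprays hit one- to two-leaf plants 2–10 cm high; preemergence was a directed spray onto loam–sand soil, both using surfactant-containing solvent formulations.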

[2] = test system: barnyardgrass (Echinochloa crus-galli); test: Test B flooded paddy test, barnyardgrass; conditions: Flood
How it was run: (§2)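 2-leaf plants; pots flooded 3 cm above soil; compound added to paddy water; depth maintained. Greenhouse 13–15 d. Visual rating vs controls, 0 (no effect) to 100 (complete control); dash = no result.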

[3] = test system: large crabgrass (Digitaria sanguinalis); test: Test A postemergence, large crabgrass; conditions: 0 to 100 scale (0 no effect, 100 complete control)
How it was run: as §1

[4] = test system: umbrella sedge (Cyperus difformis); test: Test B flooded paddy test, umbrella sedge; conditions: Flood, scale 0 to 100
How it was run: as §2

[5] = test system: corn (Zea mays); test: Test A postemergence, corn; conditions: 0 to 100 scale (0 no effect, 100 complete control)
How it was run: as §1

[6] = test system: ducksalad (Heteranthera limosa); test: Test B flooded paddy test, ducksalad; conditions: Flood, scale 0 to 100
How it was run: as §2

[7] = test system: wheat (Triticum aestivum); test: Test A postemergence, wheat; conditions: 0 to 100 scale (0 no effect, 100 complete control)
How it was run: as §1

[8] = test system: giant foxtail (Setaria faberi); test: Test A postemergence, giant foxtail; conditions: 0 to 100 scale (0 no effect, 100 complete control)
How it was run: as §1

[9] = test system: large crabgrass (Digitaria sanguinalis); test: Test A preemergence, large crabgrass; conditions: 0 to 100 scale (0 no effect, 100 complete control)
How it was run: as §1

[10] = test system: velvetleaf (Abutilon theophrasti); test: Test A postemergence, velvetleaf; conditions: 0 to 100 scale (0 no effect, 100 complete control)
How it was run: as §1

[11] = test system: pigweed (Amaranthus retroflexus); test: Test A postemergence, pigweed; conditions: 0 to 100 scale (0 no effect, 100 complete control)
How it was run: as §1

[12] = test system: corn (Zea mays); test: Test A preemergence, corn; conditions: 0 to 100 scale (0 no effect, 100 complete control)
How it was run: as §1

[13] = test system: wheat (Triticum aestivum); test: Test A preemergence, wheat; conditions: 0 to 100 scale (0 no effect, 100 complete control)
How it was run: as §1

[14] = test system: pigweed (Amaranthus retroflexus); test: Test A preemergence, pigweed; conditions: 0 to 100 scale (0 no effect, 100 complete control)
How it was run: as §1

[15] = test system: giant foxtail (Setaria faberi); test: Test A preemergence, giant foxtail; conditions: 0 to 100 scale (0 no effect, 100 complete control)
How it was run: as §1

[16] = test system: barnyardgrass (Echinochloa crus-galli); test: Test A preemergence, barnyardgrass; conditions: 0 to 100 scale (0 no effect, 100 complete control)
How it was run: as §1

[17] = test system: morningglory (Ipomoea spp.); test: Test A preemergence, morningglory; conditions: 0 to 100 scale (0 no effect, 100 complete control)
How it was run: as §1

[18] = test system: barnyardgrass (Echinochloa crus-galli); test: Test A postemergence, barnyardgrass; conditions: 0 to 100 scale (0 no effect, 100 complete control)
How it was run: as §1

[19] = test system: rice (Oryza sativa); test: Test B flooded paddy test, rice; conditions: Flood, scale 0 to 100
How it was run: as §2

[20] = test system: morningglory (Ipomoea spp.); test: Test A postemergence, morningglory; conditions: 0 to 100 scale (0 no effect, 100 complete control)
How it was run: as §1

[21] = 250 g ai/ha, scale 0 to 100 (0 no effect, 100 complete control)

With `CC1(C)CC([S+]([O-])Cc2c(C(F)(F)C(F)(F)F)nc3n(c2=O)CCC3)=NO1` (stereo not shown) [Compound 27] as the compound, how does the “Plant response rating, Velvetleaf” value ([1]; 125 g ai/ha) read?
The value was 0.

What about the “Plant response rating, Velvetleaf” value ([1]; 500 g ai/ha) of the same compound?
Its value is 60.

What about the “Plant response rating, Barnyardgrass” value ([2]; 31 g ai/ha, scale 0 to 100) of the same compound?
Its value is 0.

And the “Plant response rating, Barnyardgrass” value ([2]; 62 g ai/ha, scale 0 to 100)?
The value was 0.

And the “Plant response rating, Barnyardgrass” value ([2]; 125 g ai/ha, scale 0 to 100)?
The value was 0.

And the “Plant response rating, Barnyardgrass” value [2, 21]?
Its value is 0.

And the “Plant response rating, Crabgrass, Large” value ([3]; 125 g ai/ha)?
The value was 40.

And the “Plant response rating, Crabgrass, Large” value ([3]; 500 g ai/ha)?
The value was 80.

And the “Plant response rating, Sedge, Umbrella” value ([4]; 31 g ai/ha)?
Its value is 0.

What about the “Plant response rating, Sedge, Umbrella” value ([4]; 62 g ai/ha) of the same compound?
Its value is 0.

What about the “Plant response rating, Sedge, Umbrella” value ([4]; 125 g ai/ha) of the same compound?
The value was 0.

And the “Plant response rating, Sedge, Umbrella” value ([4]; 250 g ai/ha)?
The value was 0.

And the “Plant response rating, Corn” value ([5]; 125 g ai/ha)?
Its value is 0.

What about the “Plant response rating, Corn” value ([5]; 500 g ai/ha) of the same compound?
Its value is 0.

What about the “Plant response rating, Ducksalad” value ([6]; 31 g ai/ha) of the same compound?
The value was 0.

What about the “Plant response rating, Ducksalad” value ([6]; 62 g ai/ha) of the same compound?
Its value is 0.

And the “Plant response rating, Ducksalad” value ([6]; 125 g ai/ha)?
The value was 0.

What about the “Plant response rating, Ducksalad” value ([6]; 250 g ai/ha) of the same compound?
Its value is 0.

What about the “Plant response rating, Wheat” value ([7]; 125 g ai/ha) of the same compound?
The value was 0.

And the “Plant response rating, Wheat” value ([7]; 500 g ai/ha)?
The value was 50.

What about the “Plant response rating, Foxtail, Giant” value ([8]; 125 g ai/ha) of the same compound?
The value was 40.

And the “Plant response rating, Foxtail, Giant” value ([8]; 500 g ai/ha)?
Its value is 70.

And the “Plant response rating, Crabgrass, Large” value ([9]; 125 g ai/ha)?
The value was 70.

What about the “Plant response rating, Crabgrass, Large” value ([9]; 500 g ai/ha) of the same compound?
Its value is 90.

And the “Plant response rating, Velvetleaf” value ([10]; 125 g ai/ha)?
Its value is 0.

And the “Plant response rating, Velvetleaf” value ([10]; 500 g ai/ha)?
Its value is 40.

And the “Plant response rating, Pigweed” value ([11]; 125 g ai/ha)?
Its value is 0.

And the “Plant response rating, Pigweed” value ([11]; 500 g ai/ha)?
Its value is 30.

What about the “Plant response rating, Corn” value ([12]; 125 g ai/ha) of the same compound?
Its value is 0.

And the “Plant response rating, Corn” value ([12]; 500 g ai/ha)?
Its value is 0.

And the “Plant response rating, Wheat” value ([13]; 125 g ai/ha)?
Its value is 0.

What about the “Plant response rating, Wheat” value ([13]; 500 g ai/ha) of the same compound?
Its value is 50.

And the “Plant response rating, Pigweed” value ([14]; 125 g ai/ha)?
Its value is 0.

What about the “Plant response rating, Pigweed” value ([14]; 500 g ai/ha) of the same compound?
The value was 0.

What about the “Plant response rating, Foxtail, Giant” value ([15]; 125 g ai/ha) of the same compound?
The value was 60.

What about the “Plant response rating, Foxtail, Giant” value ([15]; 500 g ai/ha) of the same compound?
The value was 90.

What about the “Plant response rating, Barnyardgrass” value ([16]; 125 g ai/ha) of the same compound?
Its value is 50.

And the “Plant response rating, Barnyardgrass” value ([16]; 500 g ai/ha)?
The value was 90.

And the “Plant response rating, Morningglory” value ([17]; 125 g ai/ha)?
Its value is 0.

What about the “Plant response rating, Morningglory” value ([17]; 500 g ai/ha) of the same compound?
Its value is 0.

What about the “Plant response rating, Barnyardgrass” value ([18]; 125 g ai/ha) of the same compound?
The value was 40.

And the “Plant response rating, Barnyardgrass” value ([18]; 500 g ai/ha)?
Its value is 70.

What about the “Plant response rating, Rice” value ([19]; 31 g ai/ha) of the same compound?
The value was 0.

What about the “Plant response rating, Rice” value ([19]; 62 g ai/ha) of the same compound?
The value was 0.

What about the “Plant response rating, Rice” value ([19]; 125 g ai/ha) of the same compound?
Its value is 0.

What about the “Plant response rating, Rice” value ([19]; 250 g ai/ha) of the same compound?
The value was 0.

What about the “Plant response rating, Morningglory” value ([20]; 125 g ai/ha) of the same compound?
The value was 0.

What about the “Plant response rating, Morningglory” value ([20]; 500 g ai/ha) of the same compound?
The value was 40.

What does the source list for `Cc1cc2nc(C(F)(F)F)c(C[S+]([O-])C3=NOC(C)(C)C3)c(=O)n2o1` (stereo not shown) [Compound 50]?
Plant response rating, Velvetleaf ([1]; 125 g ai/ha): 0; Plant response rating, Velvetleaf ([1]; 500 g ai/ha): 0; Plant response rating, Barnyardgrass ([2]; 62 g ai/ha, scale 0 to 100): 0; Plant response rating, Barnyardgrass [2, 21]: 0; Plant response rating, Crabgrass, Large ([3]; 125 g ai/ha): 0; Plant response rating, Crabgrass, Large ([3]; 500 g ai/ha): 50; Plant response rating, Sedge, Umbrella ([4]; 62 g ai/ha): 0; Plant response rating, Sedge, Umbrella ([4]; 250 g ai/ha): 0; Plant response rating, Corn ([5]; 125 g ai/ha): 0; Plant response rating, Corn ([5]; 500 g ai/ha): 30; Plant response rating, Ducksalad ([6]; 62 g ai/ha): 0; Plant response rating, Ducksalad ([6]; 250 g ai/ha): 0; Plant response rating, Wheat ([7]; 125 g ai/ha): 0; Plant response rating, Wheat ([7]; 500 g ai/ha): 0; Plant response rating, Foxtail, Giant ([8]; 125 g ai/ha): 0; Plant response rating, Foxtail, Giant ([8]; 500 g ai/ha): 60; Plant response rating, Crabgrass, Large ([9]; 125 g ai/ha): 0; Plant response rating, Crabgrass, Large ([9]; 500 g ai/ha): 70; Plant response rating, Velvetleaf ([10]; 125 g ai/ha): 0; Plant response rating, Velvetleaf ([10]; 500 g ai/ha): 0; Plant response rating, Pigweed ([11]; 125 g ai/ha): 0; Plant response rating, Pigweed ([11]; 500 g ai/ha): 0; Plant response rating, Corn ([12]; 125 g ai/ha): 0; Plant response rating, Corn ([12]; 500 g ai/ha): 0; Plant response rating, Wheat ([13]; 125 g ai/ha): 0; Plant response rating, Wheat ([13]; 500 g ai/ha): 0; Plant response rating, Pigweed ([14]; 125 g ai/ha): 0; Plant response rating, Pigweed ([14]; 500 g ai/ha): 0; Plant response rating, Foxtail, Giant ([15]; 125 g ai/ha): 0; Plant response rating, Foxtail, Giant ([15]; 500 g ai/ha): 70; Plant response rating, Barnyardgrass ([16]; 125 g ai/ha): 0; Plant response rating, Barnyardgrass ([16]; 500 g ai/ha): 70; Plant response rating, Morningglory ([17]; 125 g ai/ha): 0; Plant response rating, Morningglory ([17]; 500 g ai/ha): 0; Plant response rating, Barnyardgrass ([18]; 125 g ai/ha): 0; Plant response rating, Barnyardgrass ([18]; 500 g ai/ha): 60; Plant response rating, Rice ([19]; 62 g ai/ha): 0; Plant response rating, Rice ([19]; 250 g ai/ha): 0; Plant response rating, Morningglory ([20]; 125 g ai/ha): 0; Plant response rating, Morningglory ([20]; 500 g ai/ha): 10
